Results reported in patent US7687526B2, “Benzo-fused compounds for use in treating metabolic disorders” (Amgen Inc., priority 2006, dated 2010).

The compounds below were run against T1, human GPR40 (Homo sapiens, UniProt O14842) (assay: Cell-based aequorin assay using human GPR40). Conditions: CHO cells stably transfected with GPR40 and Aequorin; 0.01% HSA; aequorin luminescence; read-out: Relative EC50.
T1 construct: expressed in transfected cells; host or cells: CHO cells
Description: Cell-based aequorin assays were employed to characterize the modulatory activity of compounds on the GPR40 signaling pathway. In an exemplary assay, CHO cells were stably transfected with both GPR40 and Aequorin (Euroscreen). Cells were detached from the tissue culture dish with 2 mL of trypsin (0.25% (w/v)). Trypsinization was halted with 28 mL of Hanks Buffered Salt Solution containing 20 mM Hepes (H/HBSS) and 0.01% fatty acid-free human serum albumin (HSA). Coelantrazine is added to 1 ug/mL, and the cells were incubated for 2 hours at room temperature. Compounds were dissolved in DMSO for preparation of 10 mM stock solutions. Compounds were diluted in H/HBSS containing 0.01% HSA. Serial dilutions of the test compounds were prepared to determine dose response.
Aequorin luminescence measurements were made using an EG&G Berthold 96-well luminometer, and the response was measured over a 20 second interval after cells and compounds were mixed. The maximum relative light units was plotted to determine dose response. The EC50 (effective concentration to reach 50% maximal response) was determined from the dose response plot.
Table 1 presents representative data (EC50 values) obtained for exemplary compounds of the invention for the relative activation of human GPR40. […]

T1 sequence (O14842 whole entry): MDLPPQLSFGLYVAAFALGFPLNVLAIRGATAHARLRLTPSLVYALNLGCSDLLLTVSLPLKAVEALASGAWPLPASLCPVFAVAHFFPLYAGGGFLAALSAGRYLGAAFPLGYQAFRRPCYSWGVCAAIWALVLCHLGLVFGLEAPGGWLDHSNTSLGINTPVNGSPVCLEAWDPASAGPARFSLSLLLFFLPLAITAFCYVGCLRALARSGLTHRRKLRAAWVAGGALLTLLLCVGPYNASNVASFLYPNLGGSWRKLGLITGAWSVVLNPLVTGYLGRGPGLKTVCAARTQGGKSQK

**Q.** For `CC#CC(CC(=O)O)c1ccc(OCc2ccc3c(c2)C[C@@H](c2ccc(Cl)cc2)O3)cc1` (single isomer, unassigned) [Example 76], which EC50 is on record?
**A.** The EC50 was 10 to 100 nM.

**Q.** Which EC50 does the source give for `CC#CC(CC(=O)O)c1ccc(OCc2ccc3c(c2)C[C@H](c2ccc(Cl)cc2)O3)cc1` (single isomer, unassigned) [Example 77] here?
**A.** The EC50 was 10 to 100 nM.

**Q.** With `CC1(C)CCC(C)(C)c2cc(COc3ccc([C@H](CC(=O)O)c4ncco4)cc3)ccc21` [Example 12, (S)-3-Oxazol-2-yl-3-[4-(5,5,8,8-tetramethyl-5,6,7,8-tetrahydro-naphthalen-2-ylmethoxy)-phenyl]-propionic acid] as the compound, how does the EC50 read?
**A.** Its EC50 is 100 to 1000 nM.

**Q.** Which EC50 does the source give for `CC#C[C@@H](CC(=O)O)c1ccc(OCc2ccc3c(c2)C(C)(C)CCC3(C)C)cc1` [Example 19, (S)-3-(4-((5,5,8,8-Tetramethyl-5,6,7,8-tetrahydronaphthalen-2-yl)methoxy)phenyl)hex-4-ynoic acid] here?
**A.** Its EC50 is 1000 to 10000 nM.

**Q.** `CC#C[C@H](CC(=O)O)c1ccc(OCc2ccc3c(c2)C(C)(C)CCC3(C)C)cc1` [Example 20, (R)-3-(4-((5,5,8,8-Tetramethyl-5,6,7,8-tetrahydronaphthalen-2-yl)methoxy)phenyl)hex-4-ynoic acid] was tested. Which EC50 did it give?
**A.** The EC50 was 1000 to 10000 nM.

**Q.** How did the EC50 turn out when `CCC1(CC)CCC(C)(C)c2ccc(COc3ccc([C@H](CC(=O)O)c4ccon4)cc3)cc21` [Example 72, (S)-3-(4-((8,8-diethyl-5,5-dimethyl-5,6,7,8-tetrahydronaphthalen-2-yl)methoxy)phenyl)-3-(isoxazol-3-yl)propanoic acid] was run?
**A.** Its EC50 is 10 to 100 nM.

**Q.** Which EC50 does the source give for `CCC1(CC)CCC(C)(C)c2ccc(COc3ccc([C@H](CC(=O)O)c4nnnn4C)cc3)cc21` [Example 73, (S)-3-(4-((8,8-diethyl-5,5-dimethyl-5,6,7,8-tetrahydronaphthalen-2-yl)methoxy)phenyl)-3-(1-methyl-1H-tetrazol-5-yl)propanoic acid] here?
**A.** The EC50 was 10 to 1000 nM.

**Q.** With `CC1(C)CCC(C)(C)c2cc(COc3ccc([C@H](CC(=O)O)C4=NOCC4)cc3)ccc21` [Example 74, 3-(4,5-Dihydroisoxazol-3-yl)-3-(4-((5,5,8,8-tetramethyl-5,6,7,8-tetrahydronaphthalen-2-yl)methoxy)phenyl)propanoic acid] as the compound, how does the EC50 read?
**A.** The EC50 was 10 to 100 nM.

**Q.** `Cn1ccnc1[C@@H](CC(=O)O)c1ccc(OCc2ccc3c(c2)CCCC3(C)C)cc1` [Example 75, (S)-3-(4-((5,5-dimethyl-5,6,7,8-tetrahydronaphthalen-2-yl)methoxy)phenyl)-3-(1-methyl-1H-imidazol-2-yl)propanoic acid] was tested. Which EC50 did it give?
**A.** Its EC50 is 100 to 1000 nM.

**Q.** For `CC/C(C)=C/[C@@H](CC(=O)O)c1ccc(OCc2ccc3c(c2)C(C)(C)CCC3(C)C)cc1` [Example 78, (R,E)-5-Methyl-3-(4-((5,5,8,8-tetramethyl-5,6,7,8-tetrahydronaphthalen-2-yl)methoxy)phenyl)hept-4-enoic acid], which EC50 is on record?
**A.** Its EC50 is 100 to 1000 nM.

**Q.** With `CC/C(C)=C/[C@H](CC(=O)O)c1ccc(OCc2ccc3c(c2)C(C)(C)CCC3(C)C)cc1` [Example 79, (S,E)-5-Methyl-3-(4-((5,5,8,8-tetramethyl-5,6,7,8-tetrahydronaphthalen-2-yl)methoxy)phenyl)hept-4-enoic acid] as the compound, how does the EC50 read?
**A.** The EC50 was 1000 to 10000 nM.

**Q.** Which EC50 does the source give for `Cn1ccnc1[C@@H](CC(=O)O)c1ccc(OCc2ccc3c(c2)C(C)(C)CC3(C)C)cc1` [Example 80, (S)-3-(1-Methyl-1H-imidazol-2-yl)-3-(4-((1,1,3,3-tetramethyl-2,3-dihydro-1H-inden-5-yl)methoxy)phenyl)propanoic acid] here?
**A.** Its EC50 is 100 to 1000 nM.

**Q.** Which EC50 does the source give for `Cn1ccnc1[C@@H](CC(=O)O)c1ccc(OCc2ccc3c(c2)C(=O)CCC3(C)C)cc1` [Example 81, (S)-3-(4-((5,5-Dimethyl-8-oxo-5,6,7,8-tetrahydronaphthalen-2-yl)methoxy)phenyl)-3-(1-methyl-1H-imidazol-2-yl)propanoic acid] here?
**A.** Its EC50 is 1000 to 10000 nM.

**Q.** Which EC50 does the source give for `Cn1ccnc1[C@@H](CC(=O)O)c1ccc(OCc2ccc3c(c2)OC(F)(F)O3)cc1` [Example 82, (S)-3-(4-((2,2-difluorobenzo[d][1,3]dioxol-5-yl)methoxy)phenyl)-3-(1-methyl-1H-imidazol-2-yl)propanoic acid] here?
**A.** The EC50 was 100 to 1000 nM.

**Q.** `CC1(C)CCC(C)(C)c2cc(COc3ccc([C@@H](/C=C/Cc4ccccc4)CC(=O)O)cc3)ccc21` [Example 83, (R,E)-6-Phenyl-3-(4-((5,5,8,8-tetramethyl-5,6,7,8-tetrahydronaphthalen-2-yl)methoxy)phenyl)hex-4-enoic acid] was tested. Which EC50 did it give?
**A.** Its EC50 is 1000 to 10000 nM.

**Q.** Which EC50 does the source give for `CC1(C)CCC(C)(C)c2cc(COc3ccc([C@H](/C=C/Cc4ccccc4)CC(=O)O)cc3)ccc21` [Example 84, (S,E)-6-Phenyl-3-(4-((5,5,8,8-tetramethyl-5,6,7,8-tetrahydronaphthalen-2-yl)methoxy)phenyl)hex-4-enoic acid] here?
**A.** The EC50 was 1000 to 10000 nM.

**Q.** Which EC50 does the source give for `Cn1ccnc1[C@@H](CC(=O)O)c1ccc(OCc2ccc3c(c2)OCCO3)cc1` [Example 86, (S)-3-(4-((2,3-Dihydrobenzo[b][1,4]dioxin-6-yl)methoxy)phenyl)-3-(1-methyl-1H-imidazol-2-yl)propanoic acid] here?
**A.** The EC50 was 1000 to 10000 nM.

Each compound was assayed on Human islets (assay: Insulin secretion assay). Conditions: human islet cells, KRBH with 11.2 mM glucose, insulin measured by SPA; read-out: EC50 of stimulated insulin secretion from islet cells.
Format: cell-based
Description: Human islets were isolated from cadaveric donors. Islets were treated with trypsin (0.25% (w/v) and cells were seeded in 96-well plates containing 3,000 cells per well. Cells were cultured in Roswell Park Memorial Institute (RMPI) media containing 10% fetal bovine serum.
For determination of insulin secretion, media was removed from islet cells and replaced with Krebs-Ringer bicarbonate buffer containing 10 mM HEPES (KRBH) and 2 mM glucose. After one hour incubation, media was replaced with KRBH containing 11.2 mM glucose and test compounds. Insulin released into the medium from the islet cells was measured using scintillation proximity assay (SPA).

**Q.** For `CC1(C)CCC(C)(C)c2cc(COc3ccc(C(CC(=O)O)c4cncnc4)cc3)ccc21` (racemic) [Example 9, (R/S)-3-Pyrimidin-5-yl-3-[4-(5,5,8,8-tetramethyl-5,6,7,8-tetrahydro-naphthalen-2-ylmethoxy)-phenyl]-propionic acid], which EC50 is on record?
**A.** The EC50 was less than 1000 nM.

**Q.** How did the EC50 turn out when `Cn1cncc1[C@@H](CC(=O)O)c1ccc(OCc2ccc3c(c2)C(C)(C)CCC3(C)C)cc1` [Example 4, (S)-3-(1-methyl-1H-imidazol-5-yl)-3-(4-((5,5,8,8-tetramethyl-5,6,7,8-tetrahydronaphthalen-2-yl)methoxy)phenyl)propanoic acid] was run?
**A.** The EC50 was less than 1000 nM.
